The target of experiment [1] is human A2a receptors (HEK 293 transfected) (Homo sapiens (Human), UniProt P29274). As to the kind of experiment: Inhibition of cAMP release in HEK-A2aR cells (HTRF, LANCE Ultra cAMP). The conditions noted are these: 3 nM NECA, 10 min. Type of experiment: cell-based. On the procedure:
Functional activity was measured by inhibition of cAMP release in HEK cells (see below for further details).
To screen A2a receptor inhibitors by HTRF technology, about 500 HEK-A2aR cells (HEK 293 transfected with human A2a receptors) were treated with inhibitors in presence of stimulation buffer (1×HBSS, 5 mM HEPES, 0.1% BSA stabilizer, pH 7.4) supplemented with 30 μM phosphodiesterase inhibitor Rolipram (to prevent cAMP degradation). This stimulation was immediately followed by treatment with 3 nM standard A2aR agonist (NECA) for 10 min under gentle shaking at room temperature. After that, inhibition of cAMP release was determined directly using LANCE Ultra cAMP assay (Perkin Elmer TRF0263).
All analysis was performed using GraphPad Prism 7.0 (GraphPad Software, San Diego, USA). Results are given, as EC50 (M).
For orientation: Time-resolved FRET reads energy transfer from a long-lived donor to a nearby acceptor.

The target in experiment [2] is human adenosine receptor sub-type A1 (Homo sapiens (Human), UniProt P30542). Kind of experiment: Affinity for human adenosine A1 receptor by SPR. Type of experiment: binding. On the procedure:
(§1) Affinity for the human adenosine receptor sub-types (A2a, A2b, A1 and A3) was determined by surface plasmon resonance (SPR) using published methodologies (see below for further details).
(§2) Affinity for the human adenosine receptor sub-types (A2a, A2b, A1 and A3) was determined by SPR as described in Aristotelous, T., et al, Methods in Enzymology (2015), Volume 556, Chapter 23, pages 499-525 and Congreve, M., et al, J Med Chem (2012), Vol. 55, pages 1898-1903. The method used was analogous to the method used in Congreve, M., et al (see supplementary page S10) for the A2a receptor, but the wild type receptor was used rather than the proprietary StaR form.
Background: SPR reads the build-up and loss of mass on a sensor chip optically.

The target in experiment [3] is human adenosine receptor sub-type A3 (Homo sapiens (Human), UniProt P0DMS8). As to the kind of experiment: Affinity for human adenosine A3 receptor by SPR. Type of experiment: binding. On the procedure:
as §1, §2

A further experiment concerns MCA-205 tumor. As to the kind of experiment: Inhibition of the growth of MCA-205 tumor in syngeneic mice. Type of experiment: in vivo, mouse. The note with it: 30 mg/kg BID oral gavage, 11 consecutive days from day 10; day 19 to study termination; p<0.005 and p<0.001. On the procedure: C57/BI6JRjJL female mice (9-10 weeks old from Janvier Laboratories) were engrafted in subcutaneous location with 0.25.10^6 MCA-205 cells (suspended in 100% PBS buffer, fibrosarcoma cell line kindly provided by Dr. J. Stagg, Universite de Montréal, Canada). Mice were then kept in a post-operative cabinet at 28° C. until complete recovery.
Randomization of mice was performed on day 9 post-cell inoculation, after measurement of tumour volumes using a digital caliper. Assuming an ovoid form of the tumour, the following formula was applied: Volume=0.52×(width)^2×length. Width and length were expressed in mm, volume in mm^3. Twenty-six female mice were allocated in two groups: vehicle and Example 1 (n=13 mice/group). Oral gavage with vehicle (control group, PEG200/Soluplus 10% in Citrate Buffer pH3 at 50 mM (50%/50% w/v)) or Example 1 solubilized in the vehicle at 30 mg/kg in BID (twice daily administrations by oral gavage with a volume of administration of 5 ml/kg) was initiated 10 days after cell inoculation and continued for 11 consecutive days.

Experiment [4] deals with human adenosine receptor sub-type A2a (wild type) (Homo sapiens (Human), UniProt P29274). Kind of experiment: Affinity for human adenosine A2a receptor by surface plasmon resonance (SPR). Type of experiment: binding. On the procedure: as §1, §2
The target in experiment [5] is human adenosine receptor sub-type A2b (Homo sapiens (Human), UniProt P29275). As to the kind of experiment: Affinity for human adenosine A2b receptor by SPR. Type of experiment: binding. On the procedure: as §1, §2
For experiment [6], the system named is human primary CD3+ T-cells. As to the kind of experiment: Recovery of 2-chloroadenosine (CADO) mediated inhibition of IL-2 production. Type of experiment: cell-based. The conditions noted are these: T-cell, two donors, 10 μM CADO, 48 hours. On the procedure: CD3^+ cells were isolated from Buffy Coat of two human healthy donors (Donor 1: D1 and Donor 2: D2) with the RosetteSep technology (RosetteSep Human T cell enrichment cocktail from Stem Cell) according to provider's instructions. T-cells were then stimulated with anti-CD3 mAb, anti-CD28 mAb coated beads (Dynabeads® Human T-Activator CD3/CD28 (Thermo Fisher Scientific) in a complete medium containing 10% fetal bovine serum in the presence or not of Example 1. After one hour incubation time, CADO (2-chloroadenosine, Abcam Biochemical) at 10 μM was added to the culture. After 48 hours of stimulation at 37° C., 5% CO2 and a short centrifugation, culture supernatant were harvested and stored at −80° C. for further evaluation by ELISA. In the meantime, a staining with a living dye was performed to access compound-induced toxicity. Il-2 measurement was performed by using the Human IL-2 Uncoated ELISA (Invitrogen) following data sheet instructions. To access the percentage of IL-2 inhibition induced by 10 μM CADO, the calculation used control condition (cells stimulated in basal condition). Then to access compound-induced recovery of IL-2 production, each dose was normalized following this formula: ([sample]−[mean of CADO])/([mean of basal condition]−[mean of CADO])*100. Compounds normalization was performed per plate. […]

[7] abbreviates: from SPR IC50 values, rounded to 2 significant figures.

human adenosine receptor sub-type A1, sequence (P30542 whole entry): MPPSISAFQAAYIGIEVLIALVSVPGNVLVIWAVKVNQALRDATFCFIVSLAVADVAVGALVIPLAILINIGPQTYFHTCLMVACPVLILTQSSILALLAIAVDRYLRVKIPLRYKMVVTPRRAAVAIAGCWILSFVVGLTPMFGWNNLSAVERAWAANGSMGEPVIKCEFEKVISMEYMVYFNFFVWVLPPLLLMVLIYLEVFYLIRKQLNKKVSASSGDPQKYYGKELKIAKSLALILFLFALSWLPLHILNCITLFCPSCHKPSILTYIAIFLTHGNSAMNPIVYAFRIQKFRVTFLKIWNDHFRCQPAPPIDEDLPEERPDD
human adenosine receptor sub-type A2b, sequence (P29275 whole entry): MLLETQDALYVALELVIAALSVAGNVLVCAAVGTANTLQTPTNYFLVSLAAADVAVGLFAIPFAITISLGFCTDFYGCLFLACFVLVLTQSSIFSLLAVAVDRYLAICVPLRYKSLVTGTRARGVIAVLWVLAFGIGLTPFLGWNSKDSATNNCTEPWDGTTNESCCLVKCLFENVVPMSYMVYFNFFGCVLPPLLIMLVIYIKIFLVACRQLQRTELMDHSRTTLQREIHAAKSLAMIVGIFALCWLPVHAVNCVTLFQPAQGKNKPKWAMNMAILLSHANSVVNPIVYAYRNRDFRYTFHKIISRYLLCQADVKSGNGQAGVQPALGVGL
human adenosine receptor sub-type A3, sequence (P0DMS8 whole entry): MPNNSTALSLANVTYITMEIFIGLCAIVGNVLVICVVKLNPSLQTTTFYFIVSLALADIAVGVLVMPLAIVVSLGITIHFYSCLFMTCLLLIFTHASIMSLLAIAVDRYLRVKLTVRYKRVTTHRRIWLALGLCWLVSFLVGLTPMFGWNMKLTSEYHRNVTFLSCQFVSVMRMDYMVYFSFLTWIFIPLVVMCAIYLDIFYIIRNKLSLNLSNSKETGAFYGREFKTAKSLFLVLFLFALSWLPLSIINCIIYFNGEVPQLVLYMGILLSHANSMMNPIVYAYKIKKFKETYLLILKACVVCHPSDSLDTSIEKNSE
human adenosine receptor sub-type A2a (wild type), sequence (P29274 whole entry): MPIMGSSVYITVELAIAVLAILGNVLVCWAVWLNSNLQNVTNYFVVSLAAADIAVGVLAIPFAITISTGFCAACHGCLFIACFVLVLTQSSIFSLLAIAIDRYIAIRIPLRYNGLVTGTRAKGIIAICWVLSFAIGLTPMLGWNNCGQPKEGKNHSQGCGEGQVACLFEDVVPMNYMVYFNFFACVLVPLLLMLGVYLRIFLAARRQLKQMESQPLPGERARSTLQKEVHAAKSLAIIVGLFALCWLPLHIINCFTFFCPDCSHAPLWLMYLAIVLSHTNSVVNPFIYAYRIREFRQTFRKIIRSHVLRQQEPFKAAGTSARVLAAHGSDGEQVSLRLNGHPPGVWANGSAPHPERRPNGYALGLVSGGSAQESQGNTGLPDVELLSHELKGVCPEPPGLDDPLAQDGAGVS
human A2a receptors (HEK 293 transfected), sequence (P29274 whole entry): as above

As for `Cc1cccc(Cn2cc3c(N)nc(-c4ccsn4)nc3n2)c1` [Example 1, 2-[(3-methylphenyl)methyl]-6-(1,2-thiazol-3-yl)-2H-pyrazolo[3,4-d]pyrimidin-4-amine], the EC50 (as a rule, the concentration needed to bring the measured effect to its halfway point) in experiment [1] was determined as 4 nM; in experiment [6], 560 nM. Also, the IC50 (in general, the midpoint of a concentration-inhibition curve) amounted to 3.1 µM in experiment [2] (SPR, human A1 receptor); 35.8 µM in experiment [3] (SPR, human A3 receptor); 3.5 nM in experiment [4]; 1500 nM in experiment [5] (SPR, human A2b receptor). Further, the “Relative selectivity for A2a v. A1” value in experiment [2] (setting [7]) worked out at 890. Besides, the “Relative selectivity for A2a v. A3” value in experiment [3] (setting [7]) is reported as 10000. The mean tumor volume result in the experiment on MCA-205 tumor is on record as “significant inhibition of the mean tumor volume”. In experiment [5] (setting [7]), the “Relative selectivity for A2a v. A2b” value was 430.

Values taken from patent US11786528B2, “Pyrazolopyrimidine compounds as adenosine receptor antagonists” (EXSCIENTIA LTD., priority 2018, dated 2023).
